Assay results reported in ChEMBL document CHEMBL5647694, “Novel orally bioavailable EZH1/2 dual inhibitors with greater antitumor efficacy than an EZH2 selective inhibitor” (Cancer Sci, 2017).
The source made the active and inactive calls. The calls are words filed in the database; no cut-off is given here.

Tests used:
MOLT-4 = assay: Antitumor activity against human MOLT-4 cells assessed as cell growth inhibition treated for 10 to 15 days; assay type: functional; details: time 10-15 day
JM1 = assay: Antitumor activity against human JM1 cells assessed as cell growth inhibition treated for 10 to 15 days; assay type: functional; details: time 10-15 day
[1] = molecular target: Histone-lysine N-methyltransferase, H3 lysine-79 specific (Homo sapiens, UniProt Q8TEK3); assay: Inhibition of human DOT1L using Nucleosomes and [3H]SAM as substrate incubated for 30 mins to 1 hr by HotSpot kinase assay
[2] = molecular target: Histone-lysine N-methyltransferase 2C (Homo sapiens, UniProt Q8NEZ4); assay: Inhibition of human MLL3 using Core Histone and [3H]SAM as substrate incubated for 30 mins to 1 hr by HotSpot kinase assay
[3] = molecular target: Histone-lysine N-methyltransferase 2B (Homo sapiens, UniProt Q9UMN6); assay: Inhibition of human MLL4 using Core Histone and [3H]SAM as substrate incubated for 30 mins to 1 hr by HotSpot kinase assay
[4] = molecular target: Histone-lysine N-methyltransferase NSD2 (Homo sapiens, UniProt O96028); assay: Inhibition of human NSD2 using Nucleosomes and [3H]SAM as substrate incubated for 30 mins to 1 hr by HotSpot kinase assay
[5] = molecular target: Histone-lysine N-methyltransferase NSD2 (Homo sapiens, UniProt O96028, E1099K); assay: Inhibition of human NSD2 E1099K mutant using Nucleosomes and [3H]SAM as substrate incubated for 30 mins to 1 hr by HotSpot kinase assay
[6] = molecular target: Histone-arginine methyltransferase CARM1 (Homo sapiens, UniProt Q86X55); assay: Inhibition of human PRMT4 using Histone H3 and [3H]SAM as substrate incubated for 30 mins to 1 hr by HotSpot kinase assay
[7] = molecular target: DNA (cytosine-5)-methyltransferase 1 (Homo sapiens, UniProt P26358); assay: Inhibition of human DNMT1 using Poly (dl-dC) and [3H]SAM as substrate incubated for 30 mins to 1 hr by HotSpot kinase assay
[8] = molecular target: Ephrin type-A receptor 2 (Homo sapiens) (UniProt P29317); assay: Inhibition of N-terminal GST-fused human EPHA2 cytoplasmic domain (572 to 976 residues) expressed in baculovirus-infected Sf21 cells using Blk/Lyntide as substrate at 1 uM in presence of ATP by Mobility shift assay
[9] = molecular target: Eukaryotic translation initiation factor 2-alpha kinase 3 (Homo sapiens) (UniProt Q9NZJ5); assay: Inhibition of N-terminal GST-fused human PEK catalytic domain (536 to 1116 residues) expressed in Escherichia coli expression system using SRPKtide as substrate at 1 uM in presence of ATP by Mobility shift assay
NALM-6 = assay: Antitumor activity against human NALM-6 cells assessed as cell growth inhibition treated for 10 to 15 days; assay type: functional; details: time 10-15 day
NB-4 = assay: Antitumor activity against human NB-4 cells assessed as cell growth inhibition treated for 10 to 15 days; assay type: functional; details: time 10-15 day
MC116 = assay: Antitumor activity against human MC116 cells assessed as cell growth inhibition treated for 10 to 15 days; assay type: functional; details: time 10-15 day
EB2 = assay: Antitumor activity against human EB2 cells assessed as cell growth inhibition treated for 10 to 15 days; assay type: functional; details: time 10-15 day
Ramos = assay: Antitumor activity against human Ramos cells assessed as cell growth inhibition treated for 10 to 15 days; assay type: functional; details: time 10-15 day
ST486 = assay: Antitumor activity against human ST486 cells assessed as cell growth inhibition treated for 10 to 15 days; assay type: functional; details: time 10-15 day
SU-DHL-6 = assay: Antitumor activity against human SU-DHL-6 cells assessed as cell growth inhibition treated for 10 to 15 days; assay type: functional; details: time 10-15 day
Z-138 = assay: Antitumor activity against human Z138 cells assessed as cell growth inhibition treated for 10 to 15 days; assay type: functional; details: time 10-15 day
ATN-1 = assay: Antitumor activity against human ATN-1 cells assessed as cell growth inhibition treated for 10 to 15 days; assay type: functional; details: time 10-15 day
SK-ES1 = assay: Antitumor activity against human SK-ES1 cells assessed as cell growth inhibition treated for 10 to 15 days; assay type: functional; details: time 10-15 day
SK-N-MC = assay: Antitumor activity against human SK-N-MC cells assessed as cell growth inhibition treated for 10 to 15 days; assay type: functional; details: time 10-15 day
ZR-75-1 = assay: Antitumor activity against human ZR-75-1 cells assessed as cell growth inhibition treated for 10 to 15 days; assay type: functional; details: time 10-15 day
Hs-578T = assay: Antitumor activity against human Hs-578T cells assessed as cell growth inhibition treated for 10 to 15 days; assay type: functional; details: time 10-15 day
MDA-MB-134-VI = assay: Antitumor activity against human MDA-MB-134-VI cells assessed as cell growth inhibition treated for 10 to 15 days; assay type: functional; details: time 10-15 day
CW-2 = assay: Antitumor activity against human CW-2 cells assessed as cell growth inhibition treated for 10 to 15 days; assay type: functional; details: time 10-15 day
G-401 = assay: Antitumor activity against human G-401 cells assessed as cell growth inhibition treated for 10 to 15 days; assay type: functional; details: time 10-15 day
TOV112D = assay: Antitumor activity against human TOV112D cells assessed as cell growth inhibition treated for 10 to 15 days; assay type: functional; details: time 10-15 day
Caov-3 cell line = assay: Antitumor activity against human Caov-3 cell line assessed as cell growth inhibition treated for 10 to 15 days; assay type: functional; details: time 10-15 day
OVCAR-3 = assay: Antitumor activity against human OVCAR-3 cells assessed as cell growth inhibition treated for 10 to 15 days; assay type: functional; details: time 10-15 day
TGBC11TKB = assay: Antitumor activity against human TGBC11TKB cells assessed as cell growth inhibition treated for 10 to 15 days; assay type: functional; details: time 10-15 day
NUGC-3 = assay: Antitumor activity against human NUGC-3 cells assessed as cell growth inhibition treated for 10 to 15 days; assay type: functional; details: time 10-15 day
MKN-1 = assay: Antitumor activity against human MKN-1 cells assessed as cell growth inhibition treated for 10 to 15 days; assay type: functional; details: time 10-15 day
[10] = Mean AUC (0-24 hrs) in Crl:CD Sprague-Dawley rat at 100 mg/kg, po by LC/MS/MS analysis; assay type: ADME, organism-based; details: in vivo
[11] = Toxicity in Crl:CD Sprague-Dawley rat assessed as decrease in food consumption at 100 mg/kg, po administered daily for 14 days; assay type: organism-based; details: in vivo, 336 h, time 14 day
[12] = Toxicity in Crl:CD Sprague-Dawley rat assessed as reticulocyte percentile in blood at 100 mg/kg, po administered daily for 14 days (reference value: 4.68+/-0.802%); assay type: organism-based; details: in vivo, 336 h, time 14 day
[13] = Toxicity in Crl:CD Sprague-Dawley rat assessed as white blood cell count in blood at 100 mg/kg, po administered daily for 14 days (reference value: 9.55+/-1.72 10^3/uL); assay type: organism-based; details: in vivo, 336 h, time 14 day
[14] = Toxicity in Crl:CD Sprague-Dawley rat assessed as creatine kinase level in blood at 100 mg/kg, po administered daily for 14 days (reference value: 164 +/-5U/L); assay type: organism-based; details: in vivo, 336 h, time 14 day
[15] = Toxicity in Crl:CD Sprague-Dawley rat assessed as hypertrophy of zona fasciculata/reticularis cells in adrenal at 100 mg/kg, po administered daily for 14 days by hematoxylin and eosin staining based analysis; assay type: organism-based; details: in vivo, 336 h, time 14 day
KARPAS-422 = assay: Antitumor activity against human KARPAS-422 cells xenografted in CB17/Icr-Prkdcscid/CrlCrlj mouse assessed as inhibition of tumor growth at 50 mg/kg, po BID for 14 days and measured after cessation of drug treatment; assay type: functional, organism-based; details: time 14.0 day

Chain of Ephrin type-A receptor 2 (Homo sapiens) (P29317 whole entry, the tested form may be a part): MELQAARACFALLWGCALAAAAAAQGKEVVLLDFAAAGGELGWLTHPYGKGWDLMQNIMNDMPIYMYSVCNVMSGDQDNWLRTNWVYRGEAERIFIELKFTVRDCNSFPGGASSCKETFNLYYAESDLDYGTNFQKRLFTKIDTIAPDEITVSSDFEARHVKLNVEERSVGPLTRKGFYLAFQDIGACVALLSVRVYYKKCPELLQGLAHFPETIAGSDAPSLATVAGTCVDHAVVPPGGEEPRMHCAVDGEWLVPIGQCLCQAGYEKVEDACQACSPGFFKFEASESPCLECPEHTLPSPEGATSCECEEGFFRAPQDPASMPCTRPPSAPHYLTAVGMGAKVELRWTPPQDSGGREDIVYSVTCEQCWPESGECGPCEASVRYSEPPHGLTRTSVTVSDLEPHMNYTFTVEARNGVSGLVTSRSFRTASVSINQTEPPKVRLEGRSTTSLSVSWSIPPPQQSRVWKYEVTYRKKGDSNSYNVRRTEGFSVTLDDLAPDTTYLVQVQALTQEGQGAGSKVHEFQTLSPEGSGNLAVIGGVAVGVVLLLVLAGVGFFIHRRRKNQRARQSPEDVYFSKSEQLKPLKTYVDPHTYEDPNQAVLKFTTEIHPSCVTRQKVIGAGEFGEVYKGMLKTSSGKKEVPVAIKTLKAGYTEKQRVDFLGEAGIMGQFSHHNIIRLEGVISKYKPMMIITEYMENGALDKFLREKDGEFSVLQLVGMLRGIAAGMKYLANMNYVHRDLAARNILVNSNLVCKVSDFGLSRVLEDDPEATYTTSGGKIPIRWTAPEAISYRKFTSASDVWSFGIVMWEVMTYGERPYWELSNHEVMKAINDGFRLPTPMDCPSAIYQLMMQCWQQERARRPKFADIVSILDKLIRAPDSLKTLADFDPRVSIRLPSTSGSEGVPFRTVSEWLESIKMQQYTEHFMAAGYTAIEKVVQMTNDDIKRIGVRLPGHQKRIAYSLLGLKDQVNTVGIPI
Chain of Histone-arginine methyltransferase CARM1 (Q86X55 whole entry): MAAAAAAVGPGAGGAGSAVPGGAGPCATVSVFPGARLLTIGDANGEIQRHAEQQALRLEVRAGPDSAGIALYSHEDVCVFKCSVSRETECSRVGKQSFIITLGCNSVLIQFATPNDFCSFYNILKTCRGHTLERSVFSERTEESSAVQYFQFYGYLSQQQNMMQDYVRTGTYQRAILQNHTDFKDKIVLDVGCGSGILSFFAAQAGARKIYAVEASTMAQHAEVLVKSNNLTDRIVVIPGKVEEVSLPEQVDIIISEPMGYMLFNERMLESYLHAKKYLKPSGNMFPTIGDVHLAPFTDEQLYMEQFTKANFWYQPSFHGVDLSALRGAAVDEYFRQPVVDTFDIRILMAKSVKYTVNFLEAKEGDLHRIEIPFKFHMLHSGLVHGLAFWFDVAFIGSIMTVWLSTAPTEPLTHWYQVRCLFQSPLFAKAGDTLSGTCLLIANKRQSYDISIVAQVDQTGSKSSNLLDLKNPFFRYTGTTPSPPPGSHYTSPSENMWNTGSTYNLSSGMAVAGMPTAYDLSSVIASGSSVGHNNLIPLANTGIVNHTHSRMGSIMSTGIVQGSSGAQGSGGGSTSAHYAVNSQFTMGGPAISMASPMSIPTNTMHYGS
Chain of Eukaryotic translation initiation factor 2-alpha kinase 3 (Homo sapiens) (Q9NZJ5 whole entry, the tested form may be a part): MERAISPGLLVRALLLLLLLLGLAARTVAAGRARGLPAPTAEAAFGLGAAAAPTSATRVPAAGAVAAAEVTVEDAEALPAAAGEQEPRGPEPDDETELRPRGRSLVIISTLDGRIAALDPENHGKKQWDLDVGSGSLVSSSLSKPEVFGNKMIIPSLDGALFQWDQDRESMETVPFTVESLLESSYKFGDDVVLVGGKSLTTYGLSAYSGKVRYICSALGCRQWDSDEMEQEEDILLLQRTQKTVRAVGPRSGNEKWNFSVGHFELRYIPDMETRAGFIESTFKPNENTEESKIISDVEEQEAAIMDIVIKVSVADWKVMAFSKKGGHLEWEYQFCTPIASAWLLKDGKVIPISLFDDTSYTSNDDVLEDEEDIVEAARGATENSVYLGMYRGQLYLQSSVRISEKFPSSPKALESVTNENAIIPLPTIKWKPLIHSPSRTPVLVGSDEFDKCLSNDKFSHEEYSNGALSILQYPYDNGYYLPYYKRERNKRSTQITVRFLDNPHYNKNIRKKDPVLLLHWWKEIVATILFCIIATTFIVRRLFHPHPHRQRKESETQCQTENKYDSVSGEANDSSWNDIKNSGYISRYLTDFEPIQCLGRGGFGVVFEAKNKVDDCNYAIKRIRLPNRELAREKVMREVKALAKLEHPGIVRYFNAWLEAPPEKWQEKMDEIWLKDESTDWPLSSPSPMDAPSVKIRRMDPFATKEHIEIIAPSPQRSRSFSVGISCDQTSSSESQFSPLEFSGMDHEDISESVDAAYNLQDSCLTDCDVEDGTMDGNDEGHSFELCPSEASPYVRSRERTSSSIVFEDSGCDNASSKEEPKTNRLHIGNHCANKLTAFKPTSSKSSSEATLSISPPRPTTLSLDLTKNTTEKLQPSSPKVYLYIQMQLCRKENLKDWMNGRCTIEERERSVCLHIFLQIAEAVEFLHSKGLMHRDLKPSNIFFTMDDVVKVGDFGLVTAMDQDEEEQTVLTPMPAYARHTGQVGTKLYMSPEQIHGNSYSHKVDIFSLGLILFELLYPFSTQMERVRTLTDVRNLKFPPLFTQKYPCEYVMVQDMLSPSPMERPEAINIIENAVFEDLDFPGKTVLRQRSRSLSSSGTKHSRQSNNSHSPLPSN
Chain of Histone-lysine N-methyltransferase, H3 lysine-79 specific (Q8TEK3 whole entry): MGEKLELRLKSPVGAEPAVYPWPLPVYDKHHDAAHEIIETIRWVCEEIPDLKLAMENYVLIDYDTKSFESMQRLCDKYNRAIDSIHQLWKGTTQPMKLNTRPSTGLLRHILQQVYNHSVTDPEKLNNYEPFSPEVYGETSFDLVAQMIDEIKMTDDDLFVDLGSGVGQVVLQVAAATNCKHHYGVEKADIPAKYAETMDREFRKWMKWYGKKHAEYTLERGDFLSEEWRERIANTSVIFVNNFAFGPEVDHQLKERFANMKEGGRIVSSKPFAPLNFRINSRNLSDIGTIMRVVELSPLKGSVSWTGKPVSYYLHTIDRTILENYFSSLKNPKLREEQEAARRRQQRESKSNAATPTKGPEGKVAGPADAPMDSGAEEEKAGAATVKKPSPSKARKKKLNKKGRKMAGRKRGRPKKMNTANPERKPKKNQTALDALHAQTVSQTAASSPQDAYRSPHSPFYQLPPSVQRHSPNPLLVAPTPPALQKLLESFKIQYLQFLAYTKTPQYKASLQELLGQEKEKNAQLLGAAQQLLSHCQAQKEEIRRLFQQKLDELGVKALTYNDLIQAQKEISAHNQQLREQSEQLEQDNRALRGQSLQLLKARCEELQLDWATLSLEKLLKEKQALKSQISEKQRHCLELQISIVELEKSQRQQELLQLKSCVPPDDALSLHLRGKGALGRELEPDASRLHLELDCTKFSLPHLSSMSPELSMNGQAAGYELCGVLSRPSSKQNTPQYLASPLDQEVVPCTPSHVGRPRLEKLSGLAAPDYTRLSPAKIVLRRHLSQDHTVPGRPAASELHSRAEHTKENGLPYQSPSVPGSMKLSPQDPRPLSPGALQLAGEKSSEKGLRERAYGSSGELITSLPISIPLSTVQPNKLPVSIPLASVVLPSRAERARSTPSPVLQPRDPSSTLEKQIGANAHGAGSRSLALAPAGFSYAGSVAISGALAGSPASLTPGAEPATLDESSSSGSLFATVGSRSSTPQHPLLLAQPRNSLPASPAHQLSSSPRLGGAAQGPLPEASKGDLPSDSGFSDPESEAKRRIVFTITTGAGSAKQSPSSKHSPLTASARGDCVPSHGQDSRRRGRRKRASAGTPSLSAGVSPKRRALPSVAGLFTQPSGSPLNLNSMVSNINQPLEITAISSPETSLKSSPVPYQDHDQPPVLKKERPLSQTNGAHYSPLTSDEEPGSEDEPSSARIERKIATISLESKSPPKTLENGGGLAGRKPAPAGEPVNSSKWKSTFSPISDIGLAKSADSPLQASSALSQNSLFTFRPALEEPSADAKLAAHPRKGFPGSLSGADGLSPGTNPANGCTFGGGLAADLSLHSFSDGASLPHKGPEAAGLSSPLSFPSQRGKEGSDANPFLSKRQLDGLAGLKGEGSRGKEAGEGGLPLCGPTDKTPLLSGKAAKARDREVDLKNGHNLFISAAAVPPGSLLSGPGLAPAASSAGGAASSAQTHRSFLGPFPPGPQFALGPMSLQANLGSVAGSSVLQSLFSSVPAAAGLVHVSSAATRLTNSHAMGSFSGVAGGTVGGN

Compound: Cc1cc(C)c(CNC(=O)c2cc(Cl)c3c(c2C)O[C@@](C)([C@H]2CC[C@H](N(C)C)CC2)O3)c(=O)[nH]1 [VALEMETOSTAT]
- GI50 (MOLT-4): 0.12 µM
- GI50 (JM1): > 1 µM
- IC50 [1]: 100 µM
- IC50 [2]: 100 µM
- IC50 [3]: 100 µM
- IC50 [4]: 100 µM
- IC50 [5]: 100 µM
- IC50 [6]: 100 µM
- IC50 [7]: 100 µM
- inhibition [8]: -6.7%
- inhibition [9]: -9.8%
- GI50 (NALM-6): > 1 µM
- GI50 (NB-4): > 1 µM
- GI50 (MC116): 0.0504 µM
- GI50 (EB2): > 1 µM
- GI50 (Ramos): > 1 µM
- GI50 (ST486): > 1 µM
- GI50 (SU-DHL-6): 0.00068 µM
- GI50 (Z-138): 0.0191 µM
- GI50 (ATN-1): 0.0438 µM
- GI50 (SK-ES1): > 1 µM
- GI50 (SK-N-MC): > 1 µM
- GI50 (ZR-75-1): 0.138 µM
- GI50 (Hs-578T): > 1 µM
- GI50 (MDA-MB-134-VI): > 1 µM
- GI50 (CW-2): > 1 µM
- GI50 (G-401): 0.0177 µM
- GI50 (TOV112D): 0.0154 µM
- GI50 (Caov-3 cell line): > 1 µM
- GI50 (OVCAR-3): > 1 µM
- GI50 (TGBC11TKB): 0.0867 µM
- GI50 (NUGC-3): 0.92 µM
- GI50 (MKN-1): > 1 µM

Compound: Cc1cc(C)c(CNC(=O)c2cc(Br)c3c(c2C)O[C@@](C)([C@H]2CC[C@H](N(C)C)CC2)O3)c(=O)[nH]1
- AUC [10]: 25.2 µM·h
- Activity [11]: Toxic
- Activity [12]: 4.48%
- Activity [13]: 4.56 10^3 /uL
- Activity [14]: 186 U/L
- Activity [15]: Toxic
- Activity (KARPAS-422): Active
